Molecules are shown by their SMILES. Counter-ions that a name gives are not always drawn.

This assay has as its target T1, 3H-substance P binding to the bovine retina (Bos taurus, UniProt F1MIX5).
T1 construct: from tissue; host or cells: bovine retina
The assay can be described thus: radioreceptor assay: binding of 3H-substance P to the bovine retina (according to H. Bittiger). Conditions: in vitro, read-out: in vitro values: inhibition of the binding of 3H-substance P to the bovine retina.

T1 sequence (F1MIX5 1-407): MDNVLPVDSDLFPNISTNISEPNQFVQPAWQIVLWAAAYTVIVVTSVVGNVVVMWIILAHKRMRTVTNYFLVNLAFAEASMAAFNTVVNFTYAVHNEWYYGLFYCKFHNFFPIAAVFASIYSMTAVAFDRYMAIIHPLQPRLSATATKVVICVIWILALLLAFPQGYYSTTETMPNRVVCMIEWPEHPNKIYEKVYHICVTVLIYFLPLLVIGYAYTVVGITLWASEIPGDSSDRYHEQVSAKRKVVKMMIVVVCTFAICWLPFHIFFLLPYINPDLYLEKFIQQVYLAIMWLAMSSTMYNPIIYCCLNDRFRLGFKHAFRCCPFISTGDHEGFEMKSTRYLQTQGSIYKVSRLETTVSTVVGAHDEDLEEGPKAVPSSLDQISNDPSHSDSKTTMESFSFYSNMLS

Turning to `O=C(NC1CCCCC1)N[C@H]1CCN(C(=O)c2cc(C(F)(F)F)cc(C(F)(F)F)c2)[C@H](Cc2ccccc2)C1` [Example 45 (f), (2R,4S)-1-[2-benzyl-1-(3,5-bistrifluoromethylbenzoyl)piperidin-4-yl]-3-cyclohexylurea], the IC50 was 0.009 µM.

For `CCCC(=O)N[C@H]1CCN(C(=O)c2cc(C(F)(F)F)cc(C(F)(F)F)c2)[C@H](Cc2ccc(Cl)cc2)C1` [Example 28, (2R,4S)-N-[1-(3,5-Bistrifluoromethylbenzoyl)-2-(4-chlorobenzyl)piperidin-4-yl]-butyramide], the IC50 worked out at 0.011 µM.

Consider `CN(C)CCCOC(=O)N[C@H]1CCN(C(=O)c2cc(C(F)(F)F)cc(C(F)(F)F)c2)[C@H](Cc2ccccc2)C1` [16 (2nd compound), 3-dimethylaminopropyl (2R,4S)-N-[2-benzyl-1-(3,5-bistrifluoromethylbenzoyl)piperidin-4-yl]carbamate], for which the IC50 was determined as 0.011 µM.

With `CCNC(=O)N[C@H]1CCN(C(=O)c2cc(C(F)(F)F)cc(C(F)(F)F)c2)[C@H](Cc2ccc(Cl)cc2)C1` [45 (c), (2R,4S)-1-[1-(3,5-bistrifluoromethylbenzoyl)-2-(4-chlorobenzyl)piperdin-4-yl]-3-ethylurea], the IC50 worked out at 0.0076 µM.

Regarding `NC(=O)CN[C@H]1CCN(C(=O)c2cc(C(F)(F)F)cc(C(F)(F)F)c2)[C@H](Cc2ccccc2)C1` [Example 2, (2R,4S)-2-[2-Benzyl-1-(3,5-bistrifluoromethylbenzoyl)piperidin-4-ylamino]-acetamide hydrochloride], the IC50 came to 0.01 µM.

Source of the values: patent US5935951A, “1-acyl-4-aliphatylaminopiperidine compounds” (Novartis Finance Corporation, priority 1994, dated 1999).
